Laboratory results: patent US20210147811A1, “METHODS FOR IN VITRO EXPANSION OF ADULT TISSUE STEM CELLS” (CEDARS-SINAI MEDICAL CENTER, priority 2018, published 2021)
Entries after “also recorded” stand apart in the source; their conditions may differ.

Legend:
[1] = tested on: airway epithelial cells; assay: In vitro clonogenic potential and colony-forming ability with Rho kinase inhibitor HA1077; assay type: cell-based; conditions: FIG. 11
Text: FIG. 11. […] P53 and ROCK regulate epithelial colony-forming ability and “stemness”. Tp53 (p53) is a tumor suppressor that is one of the most commonly mutated genes in cancer. In addition to its classical functions of regulating cell fate following cellular stress, p53 regulates migration, autophagy, metabolism, and tumor microenvironment signaling. p53 regulates self-renewal and terminal differentiation of both neural and mammary stem cells in vitro, and of hematopoietic and kidney stem/progenitor cells in vivo. In the Inventors' previous work the Inventors have shown that loss of p53 function promotes stem cell renewal in vivo and leads to a dramatic increase in colony-forming epithelial progenitor cells in vitro. The impact of p53 loss-of-function on airway epithelial in vitro colony-forming ability can be phenocopied by pharmacologic inhibition of Rho kinase (ROCK). Experiments proposed in the Inventors' application will use transient pharmacologic modulation of ROCK and p53 as tools to enhance survival and “sternness” of transplanted epithelial cells and overcome the need for co-transplanted structural lung cells for their efficient engraftment.

[2] = tested on: freshly isolated murine distal total epithelial cells; assay: 3D organoid culture of freshly isolated murine distal total epithelial cells; assay type: cell-based; conditions: for % colony forming efficiency: freshly isolated murine lung epithelial cells, addition to the culture medium (FIG. 3)
Text: (§1) FIG. 1. Experimental design. Preconditioning of donor cells, including addition of small molecules such as ROCK inhibitor, pifithrin α, or combined together, and generation of organoids.
FIG. 3. […] Addition of the TGF-β inhibitor, SB 431542 to the culture medium increases the % colony forming efficiency of freshly isolated murine lung epithelial cells. Addition of Pifithrin α causes an increase in organoids size, while addition of ROCKi causes an increase in the colony forming efficiency.
FIG. 13. Effect of p53 and ROCKi inhibition on murine freshly isolated distal total epithelial cells in (+SB431542). Addition of both ROCKi and Pifithrin alpha (in presence of SB431542) increases the colony forming efficiency of freshly isolated murine distal total epithelial cells (isolated from the lung without trachea). […] Pifithrin alpha also causes an increase in the size of the organoids (C). […] The drop in mean diameter of the Pifithrin alpha+ROCKi group is likely due to space constraints because of the large number of organoids per well.
Further described herein is a cell culture including a quantity of human stem cells, or stem cell derived cells in a cell culture media including at least one molecule including: a RHO-kinase (ROCK) inhibitor, SMAD inhibitor, and p53 inhibitor. In other embodiments, the RHO-kinase inhibitor is Y27632 and the p53 inhibitor is Pifithrin α. In other embodiments, the stem cells are adult stem cells. In other embodiments, the stem cell derived cells are lung epithelial cells. In various embodiments, the aforementioned inhibitors are at a concentration of 0.1-1 uM, 1-5 uM, 5-10 uM, 10-25 uM, 25-50 uM, or 50 uM or more. In various embodiments, the p53 inhibitor is Pifithrin-alpha. For example, this includes a media formulated as follows: 5 mL FBS, 500 uL ITS (100×), 50 uL Fungizone, 500 uL Pen/Strep (100×), DMEM/F12 up to 50 mL, 5 uL SB431542, Pifithrin-alpha 10 uM, ROCKi (Y-27632 dihydrochloride)—10 uM. Also described herein is a quantity of organoids including cells made by the aforementioned methods. In various embodiments, the organoids include proximal and/or distal cells. In various embodiments, the distal cells are alveolar type II progenitors and/or Scgb1a1 positive club progenitor cells.

[3] = tested on: murine pre-cultured distal total epithelial cells; assay: 3D organoid culture of murine distal total epithelial cells pre-cultured 24 hrs on collagen coated plates; assay type: cell-based; conditions: pre-cultured on collagen coated plates for 24 hrs after isolation, +SB431542; dihydrochloride
Text: FIG. 4. Effect of pre-culturing—Day 3. Pre-culturing cells on collagen coated plates for 24 hrs after initial isolation increases the rate of organoid formation, with organoids being visible as early as day 3 in culture.
FIG. 5. Effect of pre-culturing—Day 8. Addition of Pifithrin α causes an increase in organoids size, while addition of ROCKi causes an increase in the colony forming efficiency. This effect is more pronounced when cells are pre-cultured for 24 hrs on collagen coated plates after initial isolation.
FIG. 14. Effect of inhibitors on murine pre-cultured distal total epithelial cells in (+SB431542). Addition Pifithrin alpha increases organoid size while addition of ROCKi increases the colony forming efficiency when murine distal total epithelial cells (isolated from the lung without trachea) are pre-cultured on collagen coated plates for 24 hrs prior after initial isolation. The effect on size is more pronounced when cells are precultured for 24 hrs on collagen coated plates after initial isolation. The drop in CFE in the Pifithrin alpha+ROCKi group is likely due space and nutrient availability constraints due to the large number of organoids per well.
(§2) ROCKi increases the colony forming efficiency when murine distal total epithelial cells (isolated from the lung without trachea) are pre-cultured on collagen coated plates for 24 hrs prior after initial isolation. The effect on size is more pronounced when cells are precultured for 24 hrs on collagen coated plates after initial isolation. The drop in CFE in the Pifithrin alpha+ROCKi group is likely due space and nutrient availability constraints due to the large number of organoids per well. Addition of both ROCKi and Pifithrin alpha (in presence of SB431542) increases the colony forming efficiency of freshly isolated alveolar type II cells (regional stem cells which maintain the epithelium of the air sacs in the lung). The effect is synergistic for their combined use, similar to that seen for total distal epithelial cells in the previous figures.

[4] = tested on: freshly isolated alveolar type II cells; assay: Organoid culture of lineage labelled murine alveolar type II cells; assay type: cell-based; conditions: GFP+ alveolar type II cells, in presence of SB431542
Text: FIG. 15. Effect of ROCK and P53 inhibition on lineage labelled murine alveolar type II cells. GFP^+ alveolar type II cells were isolated from tamoxifen treated SPC-CreER/ROSARG mice. Addition of both ROCKi and Pifithrin alpha (in presence of SB431542) increases the colony forming efficiency of freshly isolated alveolar typeII cells (regional stem cells which maintain the epithelium of the air sacs in the lung). The effect is synergistic for their combined use, similar to that seen for total distal epithelial cells in the previous figures.
as §2

[5] = tested on: freshly isolated club cells; assay: Organoid culture of lineage labelled murine club cells; assay type: cell-based; conditions: GFP+ club cells, in presence of SB431542
Text: FIG. 17. Effect of ROCK and P53 inhibition on lineage labelled murine club cells. GFP^+ club cells were isolated from tamoxifen treated Scgb1a1-CreER/ROSARG mice. Addition of ROCKi (in presence of SB431542) increases the colony forming efficiency of freshly isolated club cells (regional stem cells which maintain certain cell types in the bronchiolar epithelium) whereas addition of Pifithrin alpha (in presence of SB431542) increases the size of Scgb1a1-derived organoids.
(§3) Distal progenitor cells were cultured as 3D organoids for 14 days in presence of Pifithrin-alpha, ROCKi and SB431542 followed by culture for 7 days in media without all three inhibitors. […] Addition of ROCKi (in presence of SB431542) increases the colony forming efficiency of freshly isolated club cells (regional stem cells which maintain certain cell types in the bronchiolar epithelium) whereas addition of Pifithrin alpha (in presence of SB431542) increases the size of Scgb1a1-derived organoids. Addition of both ROCKi (in presence of SB431542) increases the colony forming efficiency of freshly isolated murine proximal total epithelial cells (isolated from the murine trachea).

[6] = tested on: freshly isolated murine proximal total epithelial cells; assay: Organoid culture of murine tracheal progenitor (basal) cells; assay type: cell-based
Method: FIG. 18. Effect of ROCK and P53 inhibition on murine tracheal progenitor (basal) cells. Addition of both ROCKi (in presence of SB431542) increases the colony forming efficiency of freshly isolated murine proximal total epithelial cells (isolated from the murine trachea).
as §3

[7] = tested on: distal progenitor cells; assay: Differentiation potential of distal progenitors after 3D organoid culture with inhibitors; assay type: cell-based; conditions: 14 days with Pifithrin-alpha, ROCKi and SB431542, then 7 days without inhibitors, PDPN and SPC staining
Method: FIG. 16. […] Distal progenitor cells were cultured as 3D organoids for 14 days in presence of Pifithrin-alpha, ROCKi and SB431542 followed by culture for 7 days in media without all three inhibitors. […] DAPI (blue) is a nuclear stain.
as §3

[8] = tested on: freshly isolated cells; assay: Freshly isolated cells cultured with small molecules at different time points (proliferation); assay type: cell-based; conditions: different time points (FIG. 2)
Text: as §1
FIG. 2. Freshly isolated cells cultured with small molecules at different time points.

[9] = tested on: human bronchial epithelial stem cells; conditions: inhibition of ROCK1 and 2; cited from earlier work
[10] = tested on: Scgb1a1 immunoreactive cells; assay: Club cell ablation by gancyclovir in Scgb1a1-HSVtk transgenic mice; assay type: in vivo; conditions: 12.5 mg total delivered dose through miniosmotic pump, 7 days post-treatment
Method: FIG. 9. Orthotopic cell transplantation. Scgb1a1-HSVtk transgenic mice were exposed to gancyclovir delivered through miniosmotic pump and club cell ablation monitored by immunofluorescence. A dose of 12.5 mg gancyclovir (total delivered dose) led to >90% loss of Scgb1a1 immunoreactive cells 7 days post-treatment (red immunofluorescence in panel A). Total lung cells were isolated from ROSA-GFP mice and 1×10^6 cells transplanted into lungs of gancyclovir-treated mice that received i.t. chlodronate-containing liposomes for depletion of macrophages. Transplanted cells are shown in green in B and C, with cell type-specific markers shown by red immunofluorescence in C. Transplantation of 1×10^6 ROSA-mT lung cells (total cells following depletion of CD45+ fraction) into recipient lung tissue pre-conditioned by 6 Gy X-Rays led to efficient engraftment as shown by light sheet microscopy 2 weeks post transplant (D). The Inventors' initial efforts to develop a protocol for functional engraftment of transplanted epithelial stem cells involved sequential ablation of club cells through delivery of gancyclovir to Scgb1a1-HSVtk trangenic mice followed by delivery of liposome encapsulated chlodronate to deplete macrophages (FIG. 9A-C). […] Difficulties with this model were lack of translatability and poor survival of recipient mice. […]

## O=S(=O)(c1cccc2cnccc12)N1CCCNCC1 [HA1077]
[1]
  colony-forming ability: without altering
  in vitro clonogenic potential: increases

## C[C@@H](N)[C@H]1CC[C@H](C(=O)Nc2ccncc2)CC1.Cl.Cl [ROCKi, Y-27632 dihydrochloride]
[2]; freshly isolated cells, in presence of SB431542 (FIG. 13)
  colony forming efficiency: increases
[2]; freshly isolated distal cells, FIG. 13
  survival and proliferation of the stem cells (inferred from CFE and organoid size): increase survival
[2]
  % colony forming efficiency: increase
[3]
  colony forming efficiency: increase
[4]
  colony forming efficiency: increases
  size of the alveolar organoids: does not increase
[5]
  colony forming efficiency: increases
[6]; cells isolated from the murine trachea, in presence of SB431542
  colony forming efficiency: increases
[6]; comparison of proximal and distal progenitor cell types, dihydrochloride
  survival of proximal and distal progenitors (inferred from colony forming ability): increase survival of both proximal and distal progenitors; also recorded: increases survival
[7]; dihydrochloride
  differentiation potential: did not alter; also recorded: do not alter
[8]
  proliferation of cells: have an effect on proliferation
[9]
  survival and expansion of human bronchial epithelial stem cells: promote survival and expansion

## NC(=O)c1ccc(-c2nc(-c3ccc4c(c3)OCO4)c(-c3ccccn3)[nH]2)cc1 [SB 431542]
[2]
  % colony forming efficiency: increases
[7]
  differentiation potential: did not alter

## Nc1nc(O)c2ncn(COC(CO)CO)c2n1 [gancyclovir]
[10]
  loss of Scgb1a1 immunoreactive cells: > 90%
